In US6465221B1, “Method of producing a taxane-type diterpene” (Mitsui Chemicals, Inc., priority 1994, dated 2002):

Key:
[1] = system: cultured cells of Taxus baccata LINN; assay: Taxus baccata cell culture with cyclic polysaccharides and methyl ester of jasmonic acid; assay type: cell-based
Procedure: […] After completing the culture, cultured cells of Taxus baccata LINN were harvested by filtration and lyophilized, then the dry weight was measured to obtain the yeild thereof per liter of the liquid medium.

[2] = system: cultured cells of Taxus baccata LINN; assay: Taxus baccata cell culture with cyclic polysaccharides; assay type: cell-based
Procedure: (§1) A part of stem of Taxus baccata LINN which had been previously sterilized with 2% antiformin solution or 70% ethanol solution or the like, was placed on solid Woody Plant Medium (containing gelan gum of 0.25% by weight) to which naphthalenacetic acid had been added to give the concentration of 10^−5 M, and static culture was carried out at 25° C. in a dark place to provide callus of Taxus baccata LINN. 0.1 g (fresh weight) of the callus was inoculated to a well having an inner diameter of 18 mm, containing 1 ml of liquid Woody Plant Medium to which the above-mentioned component was added to give the same concentration and shake culture was carried out with a rotary shaker (amplification of 25 mm, 120 rpm) and the callus was subcultured in every 28 days to accelerate the growth rate thereof.
One gram (fresh weight) of the cultured cells thus obtained was inoculated to an Erlenmeyer flask containing 20 ml of liquid Woody Plant Medium to which the above-mentioned component was added to give the same concentration, and shake culture was carried out at 25° C. for 14 days. […]
After completing the culture, cultured cells of Taxus baccata LINN were harvested by filtration and lyophilized, then the dry weight was measured to obtain the yeild thereof per liter of the liquid medium.

[3] = system: cultured cells of Taxus baccata LINN; assay: Taxus baccata cell culture with fatty acids or natural oil; assay type: cell-based; details: 14 days
Procedure: One gram (fresh weight) of the callus was inoculated to an Erlenmeyer flask containing 20 ml of liquid Woody Plant Medium and shake culture was carried out with a rotary shaker (amplification of 25 mm, 100 rpm) and the callus was subcultured in every 21 days to accelerate the growth rate thereof.

[4] = system: cultured cells of Taxus media; details: α-linolenic acid, concentration not given, 14 days
Procedure: Two grams (fresh weight) of the cultured cells thus obtained by liquid culture was inoculated to 20 ml of liquid Woody Plant Medium (contained in an Erlenmeyer flask of 100 ml) to which α-linolenic acid of 0.01-1000 μM (dissolved in ethanol) was added, and shake culture was carried out at 25° C. in a dark place with a rotary shaker (amplification of 25 mm, 100 rpm).
After completing the culture for 14 days, cultured cells were harvested by filtration and lyophilized, then the dry weight was measured to obtain the yield thereof. Taxane-type diterpenes were extracted from the dried callus and the culture medium with methanol or the like, and they were determined by comparing with standard taxol using high performance liquid chromatography to measure the yield of taxol.

[5] = system: cultured cells of Taxus media; assay: Taxus media cell culture with coronatine; assay type: cell-based; details: concentration of coronatines 1 μM
Procedure: (§2) One gram (fresh weight) of the cultured cells thus obtained was inoculated to an Erlenmeyer flask containing 20 ml of liquid Woody Plant Medium to which the above-mentioned component was added to give the same concentration, and shake culture was carried out at 25° C. for 14 days. On the 14th day after starting the culture, 50 μl of coronatine [formula (IV)] was added as coronatines to the culture medium to give the final concentration of 0.001-1000 μM and the culture was further carried out for another 7 days.
(§3) After completing the culture, cultured cells of Taxus baccata LINN were harvested by filtration and lyophilized, then the dry weight was measured to obtain the yeild of the cultured cells per liter of the liquid medium.
Example 7 was repeated except that cultured cells of Taxus media, which was obtained in the process analogous to that of said example were used and coronatine was added as coronatines to give the final concentration of 1 μM.

[6] = system: cultured cells of Taxus baccata LINN; assay: Taxus baccata cell culture with coronatines; assay type: cell-based
Procedure: as §1, with “at 25 °” for “at 25°”, “LINN. One gram” for “LINN. 0.1 g”, “to” for “to a well having”, “an Erlenmeyer flask” for “an inner diameter of 18 mm,”, “containing 20” for “containing 1”, “every 21” for “every 28”
as §2, §3

[7] = 6-O-α-D-glucosyl-β-cyclodextrin 50 mM + methyl ester of jasmonic acid 100 μM
[8] = 50 mM, 6-O-α-D-glucosyl-β-cyclodextrin was used
[9] = concentration of α-linolenic acid 0.01 μM
[10] = concentration of α-linolenic acid 0.1 μM
[11] = concentration of α-linolenic acid 1 μM
[12] = concentration of α-linolenic acid 10 μM
[13] = concentration of α-linolenic acid 100 μM
[14] = concentration of α-linolenic acid 500 μM
[15] = concentration of α-linolenic acid 1000 μM
[16] = concentration of coronatines 0.001 μM
[17] = concentration of coronatines 0.01 μM
[18] = concentration of coronatines 0.1 μM
[19] = concentration of coronatines 1 μM
[20] = concentration of coronatines 10 μM
[21] = concentration of coronatines 100 μM
[22] = concentration of coronatines 1000 μM
[23] = β-cyclodextrin 0.01 mM + methyl ester of jasmonic acid 100 μM
[24] = β-cyclodextrin 0.1 mM + methyl ester of jasmonic acid 100 μM
[25] = β-cyclodextrin 1 mM + methyl ester of jasmonic acid 100 μM
[26] = β-cyclodextrin 10 mM + methyl ester of jasmonic acid 100 μM
[27] = concentration of β-cyclodextrin 0.01 mM
[28] = concentration of β-cyclodextrin 0.1 mM
[29] = concentration of β-cyclodextrin 1 mM
[30] = concentration of β-cyclodextrin 10 mM

Compound: OC[C@H]1O[C@H](OC[C@H]2O[C@@H]3O[C@H]4[C@H](O)[C@@H](O)[C@@H](O[C@H]5[C@H](O)[C@@H](O)[C@@H](O[C@H]6[C@H](O)[C@@H](O)[C@@H](O[C@H]7[C@H](O)[C@@H](O)[C@@H](O[C@H]8[C@H](O)[C@@H](O)[C@@H](O[C@H]9[C@H](O)[C@@H](O)[C@@H](O[C@H]2[C@H](O)[C@H]3O)O[C@@H]9CO)O[C@@H]8CO)O[C@@H]7CO)O[C@@H]6CO)O[C@@H]5CO)O[C@@H]4CO)[C@H](O)[C@@H](O)[C@@H]1O [Example 17, 6-O-α-D-glucosyl-β-cyclodextrin]
- yield of baccatin III [1, 7]: 53.0 mg/L
- yield of cephalomannine [1, 7]: 11.1 mg/L
- yield of cultured cells [1, 7]: 17.5 g/L
- yield of taxol [1, 7]: 45.9 mg/L
- yeild of cultured cells [2, 8]: 20.5 g/L
- yield of baccatin III [2, 8]: 3.5 mg/L
- yield of cephalomannine [2, 8]: 1.3 mg/L
- yield of taxol [2, 8]: 8.2 mg/L

Compound: CC/C=C\C/C=C\C/C=C\CCCCCCCC(=O)O [Example 26, α-linolenic acid]
- yield of cells [3, 9]: 20 g/L
- yield of taxane-type diterpenes, baccatin III [3, 9]: 2 mg/L
- yield of taxane-type diterpenes, cephalomannine [3, 9]: 2 mg/L
- yield of taxane-type diterpenes, taxol [3, 9]: 5 mg/L
- yield of cells [3, 10]: 20 g/L
- yield of taxane-type diterpenes, baccatin III [3, 10]: 2 mg/L
- yield of taxane-type diterpenes, cephalomannine [3, 10]: 2 mg/L
- yield of taxane-type diterpenes, taxol [3, 10]: 6 mg/L
- yield of cells [3, 11]: 20 g/L
- yield of taxane-type diterpenes, baccatin III [3, 11]: 2 mg/L
- yield of taxane-type diterpenes, cephalomannine [3, 11]: 2 mg/L
- yield of taxane-type diterpenes, taxol [3, 11]: 6 mg/L
- yield of cells [3, 12]: 20 g/L
- yield of taxane-type diterpenes, baccatin III [3, 12]: 3 mg/L
- yield of taxane-type diterpenes, cephalomannine [3, 12]: 4 mg/L
- yield of taxane-type diterpenes, taxol [3, 12]: 8 mg/L
- yield of cells [3, 13]: 19 g/L
- yield of taxane-type diterpenes, baccatin III [3, 13]: 6 mg/L
- yield of taxane-type diterpenes, cephalomannine [3, 13]: 4 mg/L
- yield of taxane-type diterpenes, taxol [3, 13]: 19 mg/L
- yield of cells [3, 14]: 14 g/L
- yield of taxane-type diterpenes, baccatin III [3, 14]: 4 mg/L
- yield of taxane-type diterpenes, cephalomannine [3, 14]: 3 mg/L
- yield of taxane-type diterpenes, taxol [3, 14]: 12 mg/L
- yield of cells [3, 15]: 12 g/L
- yield of taxane-type diterpenes, baccatin III [3, 15]: 2 mg/L
- yield of taxane-type diterpenes, cephalomannine [3, 15]: 2 mg/L
- yield of taxane-type diterpenes, taxol [3, 15]: 7 mg/L
- yield of cells [4]: 20 g/L
- yield of taxane-type diterpenes, baccatin III [4]: 10 mg/L
- yield of taxane-type diterpenes, cephalomannine [4]: 2 mg/L
- yield of taxane-type diterpenes, taxol [4]: 22 mg/L

Compound: CCC1C=C(C(=O)NC2(C(=O)O)CC2CC)C2CCC(=O)C2C1 (centres unmarked) [Example 7, coronatine]
- yield of baccatin III [5]: 26.5 mg/L
- yield of cephalomannine [5]: 15.1 mg/L
- yield of cultured cells [5]: 18.6 g/L
- yield of taxol [5]: 65.2 mg/L
- yield of baccatin III [6, 16]: 5.0 mg/L
- yield of cephalomannine [6, 16]: 3.8 mg/L
- yield of cultured cells [6, 16]: 20.1 g/L
- yield of taxol [6, 16]: 9.6 mg/L
- yield of baccatin III [6, 17]: 8.9 mg/L
- yield of cephalomannine [6, 17]: 10.2 mg/L
- yield of cultured cells [6, 17]: 20.2 g/L
- yield of taxol [6, 17]: 15.2 mg/L
- yield of baccatin III [6, 18]: 18.7 mg/L
- yield of cephalomannine [6, 18]: 12.3 mg/L
- yield of cultured cells [6, 18]: 18.6 g/L
- yield of taxol [6, 18]: 30.1 mg/L
- yield of baccatin III [6, 19]: 28.4 mg/L
- yield of cephalomannine [6, 19]: 11.4 mg/L
- yield of cultured cells [6, 19]: 18.4 g/L
- yield of taxol [6, 19]: 60.0 mg/L
- yield of baccatin III [6, 20]: 38.5 mg/L
- yield of cephalomannine [6, 20]: 8.8 mg/L
- yield of cultured cells [6, 20]: 17.8 g/L
- yield of taxol [6, 20]: 49.4 mg/L
- yield of baccatin III [6, 21]: 44.1 mg/L
- yield of cephalomannine [6, 21]: 7.9 mg/L
- yield of cultured cells [6, 21]: 17.5 g/L
- yield of taxol [6, 21]: 58.0 mg/L
- yield of baccatin III [6, 22]: 13.2 mg/L
- yield of cephalomannine [6, 22]: 6.5 mg/L
- yield of cultured cells [6, 22]: 15.0 g/L
- yield of taxol [6, 22]: 23.1 mg/L

Compound: OC[C@H]1O[C@@H]2O[C@H]3[C@H](O)[C@@H](O)[C@@H](O[C@H]4[C@H](O)[C@@H](O)[C@@H](O[C@H]5[C@H](O)[C@@H](O)[C@@H](O[C@H]6[C@H](O)[C@@H](O)[C@@H](O[C@H]7[C@H](O)[C@@H](O)[C@@H](O[C@H]8[C@H](O)[C@@H](O)[C@@H](O[C@H]1[C@H](O)[C@H]2O)O[C@@H]8CO)O[C@@H]7CO)O[C@@H]6CO)O[C@@H]5CO)O[C@@H]4CO)O[C@@H]3CO [Example 13, β-cyclodextrin]
- yield of baccatin III [1, 23]: 54.6 mg/L
- yield of cephalomannine [1, 23]: 8.0 mg/L
- yield of cultured cells [1, 23]: 15.6 g/L
- yield of taxol [1, 23]: 28.5 mg/L
- yield of baccatin III [1, 24]: 62.6 mg/L
- yield of cephalomannine [1, 24]: 9.6 mg/L
- yield of cultured cells [1, 24]: 16.3 g/L
- yield of taxol [1, 24]: 35.4 mg/L
- yield of baccatin III [1, 25]: 76.0 mg/L
- yield of cephalomannine [1, 25]: 10.1 mg/L
- yield of cultured cells [1, 25]: 15.4 g/L
- yield of taxol [1, 25]: 42.3 mg/L
- yield of baccatin III [1, 26]: 54.2 mg/L
- yield of cephalomannine [1, 26]: 12.5 mg/L
- yield of cultured cells [1, 26]: 17.3 g/L
- yield of taxol [1, 26]: 64.4 mg/L
- yeild of cultured cells [2, 27]: 19.0 g/L
- yield of baccatin III [2, 27]: 2.5 mg/L
- yield of cephalomannine [2, 27]: 0.7 mg/L
- yield of taxol [2, 27]: 4.0 mg/L
- yeild of cultured cells [2, 28]: 19.1 g/L
- yield of baccatin III [2, 28]: 3.0 mg/L
- yield of cephalomannine [2, 28]: 2.6 mg/L
- yield of taxol [2, 28]: 4.2 mg/L
- yeild of cultured cells [2, 29]: 20.1 g/L
- yield of baccatin III [2, 29]: 4.2 mg/L
- yield of cephalomannine [2, 29]: 3.0 mg/L
- yield of taxol [2, 29]: 6.5 mg/L
- yeild of cultured cells [2, 30]: 20.1 g/L
- yield of baccatin III [2, 30]: 5.0 mg/L
- yield of cephalomannine [2, 30]: 2.2 mg/L
- yield of taxol [2, 30]: 10.5 mg/L
